Assay results as given in the supplement of paper PMC11208160.

Assay: recombinant barcode read abundance after kanamycin selection (control-corrected) (log10(CPM+1)); higher = more efficient recombination; sequences stand for … in AGTGCAGAGAAAATCGGCCAGTTTTCTCTGCCTGCAGTCCGCATGCCGT…AGATTTATGCAGCGGACTGCCTTTCTCCCAAAGTGATAAACCGGACAGTATCATGGACCGGTTTTCCCGGTAATCCGTATTTGCAAGGTTGGTTTCACT; site = the 11-nt target
How it was run: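 Reported as log10(CPM+1), each value stands for recombination efficiency. That efficiency is the averaged, control-corrected counts per million of barcodes found at recombinant junctions. Cells from a pooled E. coli library pairing targets with IS621 bridge RNA target-binding loops were plated twice on chloramphenicol/ampicillin LB agar (control) and twice on chloramphenicol/ampicillin/kanamycin with 0.1 mM IPTG.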
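Further: IS621 recombinase and bridge RNA in Escherichia coli cells.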

Point of comparison: “CCGCCCTCTTGGGTTCTAACCTGTTGCTT (site CAGCCCTCTTA)”, “recombinant barcode read abundance (log10)” value 0.586. Against it:
- CCGAATGCTTGGGTTCTAACCTGTTGCCT (site CCGGATGCTAG) — lower, 0.144
- CCGAATGCTTGGGTTCTAACCTGTTGCCT (site CCGTATGCTAG) — lower, 0.155
- CCGATCACTTGGGTTCTAACCTGTTGCCT (site CCGATCACTAG) — higher, 1.14
- CCGATCACTTGGGTTCTAACCTGTTGCCT (site CGTATCACTAG) — lower, 0.034
- CCGCAGACTTGGGTTCTAACCTGTTGCTT (site CCGCAGACTAA) — higher, 1.33
- CCGCAGACTTGGGTTCTAACCTGTTGCTT (site CCGCGGACTAA) — lower, 0.013
- CCGCCCTCTTGGGTTCTAACCTGTTGCTT (site CCGCCCTCTAA) — lower, 0.291
- CCGCGCACTTGGGTTCTAACCTGTTGCCT (site CCGCGCACTAG) — within 0.2 log units, 0.397
- CCGCGCACTTGGGTTCTAACCTGTTGCCT (site CCGCGCTCTAG) — lower, 0.206
- CCGCGTGCTTGGGTTCTAACCTGTTGCCT (site CAGCGTGCTAG) — lower, 0.161
- CCGCGTGCTTGGGTTCTAACCTGTTGCCT (site CCGCGTGCTAG) — lower, 0.0933
- CCGCGTGCTTGGGTTCTAACCTGTTGCCT (site CGGCGTGCTAG) — within 0.2 log units, 0.523
- CCGCGTGCTTGGGTTCTAACCTGTTGCCT (site CTGCGTGCTAG) — lower, 0.0444
- CCGCTACCTTGGGTTCTAACCTGTTGCGG (site CCGCTACCTCC) — within 0.2 log units, 0.474
- CCGCTACCTTGGGTTCTAACCTGTTGCGG (site TCGCTAGCTCC) — lower, 0.0965
- CCGTATGCTTGGGTTCTAACCTGTTGCCT (site CCGAATGCTAG) — lower, 0.234
- CCGTATGCTTGGGTTCTAACCTGTTGCCT (site CCGCATGCTAG) — lower, 0.104
- CCGTATGCTTGGGTTCTAACCTGTTGCCT (site CCGGATGCTAG) — lower, 0.0205
- CCGTATGCTTGGGTTCTAACCTGTTGCCT (site CCGTATGCTAG) — lower, 0.168
- CCGTCACCTTGGGTTCTAACCTGTTGCCT (site ACGTCACCTAG) — lower, 0.264
- CCGTCACCTTGGGTTCTAACCTGTTGCCT (site CCGTCACCTAG) — higher, 1.29
- CCGTCACCTTGGGTTCTAACCTGTTGCCT (site GCGTCACCTAG) — lower, 0.0965
- CCGTCACCTTGGGTTCTAACCTGTTGCCT (site TCGTCACCTAG) — lower, 0.0881
- CCGTCCTCTTGGGTTCTAACCTGTTGCTG (site CAGTCCTCTCA) — lower, 0.0234
- CCGTCCTCTTGGGTTCTAACCTGTTGCTG (site CCGTCCTCTCA) — higher, 1.01
- CCGTCGACTTGGGTTCTAACCTGTTGCCT (site ACGTCCACTAG) — lower, 0.0141
- CCGTCGACTTGGGTTCTAACCTGTTGCCT (site CCGTCGACTAG) — lower, 0.197
- CCGTCTACTTGGGTTCTAACCTGTTGCTG (site CCGTCTACTAA) — lower, 0.019
- CCGTCTACTTGGGTTCTAACCTGTTGCTG (site CCGTCTACTCA) — lower, 0.38
- CCGTCTACTTGGGTTCTAACCTGTTGCTG (site CCGTCTACTGA) — lower, 0.0602
- CCGTCTACTTGGGTTCTAACCTGTTGCTG (site CCGTCTACTTA) — lower, 0.111
- CCGTGGACTTGGGTTCTAACCTGTTGCCT (site CCGTGGACTAG) — higher, 1.75
- CCGTGGACTTGGGTTCTAACCTGTTGCCT (site CCGTGGCCTAA) — lower, 0.254
- CCTAAGACTTGGGTTCTAACCTGTTGCCG (site CCTAAGACTAG) — lower, 0.343
- CCTAAGACTTGGGTTCTAACCTGTTGCCG (site CCTAAGACTCG) — lower, 0.263
- CCTAAGACTTGGGTTCTAACCTGTTGCCG (site CCTAAGACTGG) — lower, 0.148
- CCTAAGACTTGGGTTCTAACCTGTTGCCG (site CCTAAGACTTG) — lower, 0.0897
- CCTAATGCTTGGGTTCTAACCTGTTGCCT (site CCAAAGGCTAG) — lower, 0.0782
- CCTAATGCTTGGGTTCTAACCTGTTGCCT (site CCTAATGCTAG) — lower, 0.0345
- CCTACCGCTTGGGTTCTAACCTGTTGCTT (site CCTACCGCTAA) — within 0.2 log units, 0.424
- CCTACCGCTTGGGTTCTAACCTGTTGCTT (site CGTACCGCTAG) — lower, 0.0456
- CCTCACTCTTGGGTTCTAACCTGTTGCGG (site CCTCACTCTCC) — higher, 1.66
- CCTCACTCTTGGGTTCTAACCTGTTGCGG (site CCTCAGTCTTC) — lower, 0
- CCTCGCACTTGGGTTCTAACCTGTTGCCT (site CATCGCACTAG) — lower, 0.0533
- CCTCGCACTTGGGTTCTAACCTGTTGCCT (site CCTCGCACTAG) — within 0.2 log units, 0.458
- CCTCGCACTTGGGTTCTAACCTGTTGCCT (site CGTCGCACTAG) — lower, 0.133
- CCTCGCACTTGGGTTCTAACCTGTTGCCT (site CTTCGCACTAG) — lower, 0.0293
- CCTCGGGCTTGGGTTCTAACCTGTTGCAG (site CATCGGGCTCT) — lower, 0.0896
- CCTCGGGCTTGGGTTCTAACCTGTTGCAG (site CCTCGGGCTCT) — higher, 1.23
- CCTCGGGCTTGGGTTCTAACCTGTTGCAG (site CGTCGGGCTCT) — lower, 0.011
- CCTCGGGCTTGGGTTCTAACCTGTTGCAG (site CTTCGGGCTCT) — lower, 0.101
- CCTGACTCTTGGGTTCTAACCTGTTGCAC (site CCTGACTCTGT) — higher, 2.05
- CCTGACTCTTGGGTTCTAACCTGTTGCAC (site GAACTGCCTAA) — lower, 0.0359
- CCTGACTCTTGGGTTCTAACCTGTTGCAT (site CCTGACTCTAT) — higher, 2.19
- CCTGACTCTTGGGTTCTAACCTGTTGCAT (site TAGTGGCCTTA) — lower, 0.221
- CCTGAGACTTGGGTTCTAACCTGTTGCAG (site CCTGAGACTCT) — higher, 1.37
- CCTGAGACTTGGGTTCTAACCTGTTGCAG (site CCTGGCACTCT) — lower, 0.297
- CCTGCGACTTGGGTTCTAACCTGTTGCAC (site AAGCACCCTCA) — lower, 0.185
- CCTGCGACTTGGGTTCTAACCTGTTGCAC (site CCTGCGACTGT) — lower, 0.219
- CCTGCGGCTTGGGTTCTAACCTGTTGCCT (site CCTGCGACTAG) — lower, 0.0127
- CCTGCGGCTTGGGTTCTAACCTGTTGCCT (site CCTGCGGCTAG) — lower, 0.15
- CCTGGAACTTGGGTTCTAACCTGTTGCTT (site CCTGGAACTAA) — within 0.2 log units, 0.418
- CCTGGAACTTGGGTTCTAACCTGTTGCTT (site CCTGGAGCTAT) — lower, 0.333
- CCTGGACCTTGGGTTCTAACCTGTTGCGT (site CCTGGACCTAC) — higher, 2.06
- CCTGGACCTTGGGTTCTAACCTGTTGCGT (site CCTGGGCCTAA) — lower, 0.0265
- CCTGGAGCTTGGGTTCTAACCTGTTGCAT (site CCTGGAACTAA) — lower, 0.266
- CCTGGAGCTTGGGTTCTAACCTGTTGCAT (site CCTGGAGCTAT) — within 0.2 log units, 0.654
- CCTGGCACTTGGGTTCTAACCTGTTGCAG (site CCTGAGACTCT) — lower, 0
- CCTGGCACTTGGGTTCTAACCTGTTGCAG (site CCTGGCACTCT) — higher, 1.96
- CCTGGGACTTGGGTTCTAACCTGTTGCTA (site ATGATACCTAT) — lower, 0.186
- CCTGGGACTTGGGTTCTAACCTGTTGCTA (site CCTGGGACTTA) — higher, 2.03
- CCTGGTCCTTGGGTTCTAACCTGTTGCAT (site CCTGGACCTAA) — lower, 0.195
- CCTGGTCCTTGGGTTCTAACCTGTTGCAT (site CCTGGTCCTAT) — higher, 1.42
- CCTTAGTCTTGGGTTCTAACCTGTTGCAG (site ACATAGTCTCT) — lower, 0.169
- CCTTAGTCTTGGGTTCTAACCTGTTGCAG (site CCTTAGTCTCT) — higher, 1.15
- CCTTCCACTTGGGTTCTAACCTGTTGCCT (site ACTTCCACTAG) — lower, 0.00909
- CCTTCCACTTGGGTTCTAACCTGTTGCCT (site CCTTCCACTAG) — lower, 0.285
- CCTTCCACTTGGGTTCTAACCTGTTGCCT (site GCTTCCACTAG) — lower, 0.0418
- CCTTCCACTTGGGTTCTAACCTGTTGCCT (site TCTTCCACTAG) — lower, 0.0607
- CCTTCCTCTTGGGTTCTAACCTGTTGCCT (site CATTCCTCTAG) — lower, 0.018
- CCTTCCTCTTGGGTTCTAACCTGTTGCCT (site CCTTCCTCTAG) — within 0.2 log units, 0.599
- CCTTCCTCTTGGGTTCTAACCTGTTGCCT (site CGTTCCTCTAG) — lower, 0.0856
- CCTTCCTCTTGGGTTCTAACCTGTTGCCT (site CTTTCCTCTAG) — lower, 0
- CCTTGGACTTGGGTTCTAACCTGTTGCCT (site CCTTGCTCTAG) — lower, 0.084
- CCTTGGACTTGGGTTCTAACCTGTTGCCT (site CCTTGGACTAG) — within 0.2 log units, 0.427
